According to ChEMBL document CHEMBL1141017, “Triterpene based compounds with potent anti-maturation activity against HIV-1” (Bioorg Med Chem Lett, 2008):
Activity calls are given as the source filed them. The calls are words filed in the database; no cut-off is given here.

What was measured:
[1] = Tmax in Sprague-Dawley rat at 5 mg/kg, po; assay type: ADME, organism-based; design: dose 5 mg/kg, route oral; details: in vivo
[2] = tested on: Human immunodeficiency virus 1; experiment: Antiviral activity against HIV1 3B replication in human PBMC assessed as reverse transcriptase activity after 7 days; assay type: functional, organism-based; details: for IC50: Human immunodeficiency virus 1, 3B, 168 h
[3] = (§1) Cytotoxicity against human PBMC by cell viability assay; assay type: cell-based; details: read-out: TC50 (the source's name)
[4] = Cytotoxicity against human MT4 cells after 4 days by cell viability assay; assay type: cell-based; details: read-out: TC50
[5] = tested on: Human immunodeficiency virus 1; experiment: Antiviral activity against HIV1 NL4-3 infected in human MT4 cells assessed as cytoprotection against virus-induced cytopathic effect after 4 days by cell viability assay; assay type: functional, organism-based; details: Human immunodeficiency virus 1, NL4-3, MT4, 96 h
[6] = Half life in Sprague-Dawley rat at 5 mg/kg, po; assay type: ADME, organism-based; design: dose 5 mg/kg, route oral; details: in vivo
[7] = Cmax in Sprague-Dawley rat at 5 mg/kg, po; assay type: ADME, organism-based; design: dose 5 mg/kg, route oral; details: in vivo
[8] = AUC (0 to infinity) in Sprague-Dawley rat at 5 mg/kg, po; assay type: ADME, organism-based; design: time infinity, dose 5 mg/kg, route oral; details: plasma
[9] = Oral bioavailability in Sprague-Dawley rat at 5 mg/kg; assay type: ADME, organism-based; details: in vivo
[10] = Therapeutic index, ratio of TC50 for human MT4 cells to EC50 for HIV1 NL43; assay type: cell-based
[11] = Therapeutic index, ratio of TC50 for human MT4 cells to IC50 for HIV1 3B; assay type: cell-based
[12] = Metabolic stability in human liver microsomes assessed as compound remaining after 40 mins; assay type: ADME, Microsome; details: read-out: Stability
[13] = Metabolic stability in Sprague-Dawley rat liver microsomes assessed as compound remaining after 40 mins; assay type: ADME, Microsome; details: read-out: Stability
[14] = tested on: PBMC; experiment: as §1; assay type: cell-based
[15] = Tmax in Sprague-Dawley rat at 7.5 mg/kg, po; assay type: ADME, organism-based; design: dose 7.5 mg/kg, route oral; details: in vivo
[16] = Tmax in Sprague-Dawley rat at 10 mg/kg, po; assay type: ADME, organism-based; design: dose 10 mg/kg, route oral; details: in vivo
[17] = Half life in Sprague-Dawley rat at 7.5 mg/kg, po; assay type: ADME, organism-based; design: dose 7.5 mg/kg, route oral; details: in vivo
[18] = Half life in Sprague-Dawley rat at 10 mg/kg, po; assay type: ADME, organism-based; design: dose 10 mg/kg, route oral; details: in vivo
[19] = Cmax in Sprague-Dawley rat at 7.5 mg/kg, po; assay type: ADME, organism-based; design: dose 7.5 mg/kg, route oral; details: in vivo
[20] = Cmax in Sprague-Dawley rat at 10 mg/kg, po; assay type: ADME, organism-based; design: dose 10 mg/kg, route oral; details: in vivo
[21] = AUC (0 to infinity) in Sprague-Dawley rat at 7.5 mg/kg, po; assay type: ADME, organism-based; design: time infinity, dose 7.5 mg/kg, route oral; details: plasma
[22] = AUC (0 to infinity) in Sprague-Dawley rat at 10 mg/kg, po; assay type: ADME, organism-based; design: time infinity, dose 10 mg/kg, route oral; details: plasma
[23] = Oral bioavailability in Sprague-Dawley rat at 7.5 mg/kg; assay type: ADME, organism-based; details: in vivo
[24] = Oral bioavailability in Sprague-Dawley rat at 10 mg/kg; assay type: ADME, organism-based; details: in vivo

SMILES | Tmax [1] [h] | IC50 [2] [nM] | CC50 [3] [nM] | CC50 at 96 h [4] [nM] | EC50 [5] [nM] | half-life [6] [h] | Cmax [7] [nM] | AUC(0-inf) [8] [ng·h/mL] | selectivity ratio [10] | selectivity ratio [11] | remaining at 40 min [12] [%] | remaining at 40 min [13] [%] | other results
C=C(C)[C@@H]1CC[C@]2(C(=O)NCCc3ccc(OC)cc3)CC[C@]3(C)[C@H](CC[C@@H]4[C@@]5(C)CC[C@H](OC(=O)CC(C)(C)C(=O)O)C(C)(C)[C@@H]5CC[C@]43C)[C@@H]12 | 2 | 60 | 1000 | > 10000 | 12 | 4.8 | 40 | 245 |  |  |  |  | bioavailability [9]: 1.84%
C=C(C)[C@@H]1CC[C@]2(C(=O)NCc3ccccc3C(=O)O)CC[C@]3(C)[C@H](CC[C@@H]4[C@@]5(C)CC[C@H](OC(=O)CC(C)(C)C(=O)O)C(C)(C)[C@@H]5CC[C@]43C)[C@@H]12 | 3.2 | 16 | 9700 | 4500 | 6 | 2 | 580 | 1700 | > 400 | > 400 | > 60 | > 60 | bioavailability [9]: 56.4%
C=C(C)[C@@H]1CC[C@]2(C(=O)NCc3cccc(OC(F)(F)F)c3)CC[C@]3(C)[C@H](CC[C@@H]4[C@@]5(C)CC[C@H](OC(=O)CC(C)(C)C(=O)O)C(C)(C)[C@@H]5CC[C@]43C)[C@@H]12 |  |  |  | 5200 | 110 |  |  |  | > 400 | > 400 | 10 | 10 | Activity [2]: inactive; TC50 [14]: Not Active
C=C(C)[C@@H]1CC[C@]2(C(=O)NCc3ccc(OC(F)(F)F)cc3)CC[C@]3(C)[C@H](CC[C@@H]4[C@@]5(C)CC[C@H](OC(=O)CC(C)(C)C(=O)O)C(C)(C)[C@@H]5CC[C@]43C)[C@@H]12 |  |  |  | 1000 | 190 |  |  |  | > 400 | > 400 | 10 | 10 | Activity [2]: inactive; TC50 [14]: Not Active
C=C(C)[C@@H]1CC[C@]2(C(=O)NCc3ccc(OC)cc3)CC[C@]3(C)[C@H](CC[C@@H]4[C@@]5(C)CC[C@H](OC(=O)CC(C)(C)C(=O)O)C(C)(C)[C@@H]5CC[C@]43C)[C@@H]12 |  | 23.5 | > 10000 | > 10000 | 26 |  |  |  | > 400 | > 400 | 10 | 10 | 
C=C(C)[C@@H]1CC[C@]2(C(=O)NCc3ccc(F)cc3C(=O)O)CC[C@]3(C)[C@H](CC[C@@H]4[C@@]5(C)CC[C@H](OC(=O)CC(C)(C)C(=O)O)C(C)(C)[C@@H]5CC[C@]43C)[C@@H]12 |  | 4 | 1500 | 3200 | 52 |  |  |  | > 400 | > 400 | 10 | 10 | 
C=C(C)[C@@H]1CC[C@]2(C(=O)NCc3ccc(Cl)cc3)CC[C@]3(C)[C@H](CC[C@@H]4[C@@]5(C)CC[C@H](OC(=O)CC(C)(C)C(=O)O)C(C)(C)[C@@H]5CC[C@]43C)[C@@H]12 | 2 | 27 | > 10000 | > 10000 | 17.9 | 8 | 270 | 1340 | > 400 | > 400 | > 60 | > 60 | bioavailability [9]: 3.91%
C=C(C)[C@@H]1CC[C@]2(C(=O)NCCc3ccccc3C(=O)NCCC(=O)O)CC[C@]3(C)[C@H](CC[C@@H]4[C@@]5(C)CC[C@H](OC(=O)CC(C)(C)C(=O)O)C(C)(C)[C@@H]5CC[C@]43C)[C@@H]12 |  | 9.4 | 11000 | 9600 | 3.1 |  |  |  |  |  | > 40 | > 40 | Tmax [15]: 1 h; Tmax [16]: 4 h; half-life [17]: 4.54 h; half-life [18]: 7.8 h; Cmax [19]: 860 nM; Cmax [20]: 70 nM; AUC(0-inf) [21]: 1650 ng·h/mL; AUC(0-inf) [22]: 1260 ng·h/mL; bioavailability [23]: 15.5%; bioavailability [24]: 1.6%
C=C(C)[C@@H]1CC[C@]2(C(=O)NCc3ccccc3OC)CC[C@]3(C)[C@H](CC[C@@H]4[C@@]5(C)CC[C@H](OC(=O)CC(C)(C)C(=O)O)C(C)(C)[C@@H]5CC[C@]43C)[C@@H]12 | 2 | 7 | > 10000 | > 10000 | 24 | 2 | 40 | 114 | > 400 | > 400 | 10 | 10 | 
C=C(C)[C@@H]1CC[C@]2(C(=O)NCc3ccc4cccc(O)c4n3)CC[C@]3(C)[C@H](CC[C@@H]4[C@@]5(C)CC[C@H](OC(=O)CC(C)(C)C(=O)O)C(C)(C)[C@@H]5CC[C@]43C)[C@@H]12 |  | 4 | > 10000 | > 10000 | 3 |  |  |  |  |  | > 40 | > 40 | 
C=C(C)[C@@H]1CC[C@]2(C(=O)NCc3ccccc3)CC[C@]3(C)[C@H](CC[C@@H]4[C@@]5(C)CC[C@H](OC(=O)CC(C)(C)C(=O)O)C(C)(C)[C@@H]5CC[C@]43C)[C@@H]12 |  | 11 | > 10000 | > 10000 | 23 |  |  |  | > 400 | > 400 |  | 10 | 
C=C(C)[C@@H]1CC[C@]2(C(=O)NCc3ccc4c(c3)OCO4)CC[C@]3(C)[C@H](CC[C@@H]4[C@@]5(C)CC[C@H](OC(=O)CC(C)(C)C(=O)O)C(C)(C)[C@@H]5CC[C@]43C)[C@@H]12 |  | 9 | > 10000 | > 10000 | 23 |  |  |  | > 400 | > 400 | 10 | 10 | 
C=C(C)[C@@H]1CC[C@]2(C(=O)NCc3cccc(OC)c3)CC[C@]3(C)[C@H](CC[C@@H]4[C@@]5(C)CC[C@H](OC(=O)CC(C)(C)C(=O)O)C(C)(C)[C@@H]5CC[C@]43C)[C@@H]12 |  | 14 | > 10000 | > 10000 | 19 |  |  |  | > 400 | > 400 | 10 | 10 | 
